# Literature values in patent US8623825B2, “Edible fat composition for enhancing bone strength” (Enzymotec Ltd., priority 2007, dated 2014).
# Experiments:
# vertebral bone = details: independent of bone mineral density
# [1] = test system: bone of post-menopausal women
SMILES,Vertebral bone strength (vertebral bone),Bone mass ([1]; fluoride treatment),Skeletal fragility ([1]; particularly non-vertebral bones)
O=C(c1ccc(OCCN2CCCCC2)cc1)c1c(-c2ccc(O)cc2)sc2cc(O)ccc12 [raloxifene],significantly improved,,
F [fluoride],,increased bone mass,increased skeletal fragility
